# Measured values reported in ChEMBL document CHEMBL1140148, “Structure-activity studies on a series of a 2-aminopyrimidine-containing histamine H4 receptor ligands” (J Med Chem, 2008).
# Active and inactive are the calls of the source. No cut-off for these calls is given here.
# Assays:
# [1] = target: T1, 5-hydroxytryptamine receptor 7 (Homo sapiens, UniProt P34969); experiment: Inhibition of 5HT7 receptor at 10 umol
# [2] = test system: Rattus norvegicus; experiment: Toxicity in rat assessed as effect on locomotor activity by rotarod test upto 300 umol/kg; assay type: organism-based; conditions: in vivo
# [3] = test system: Mus musculus; experiment: Antiinflammatory activity in ip dosed CD1/ICR mouse assessed as reduction of clobenpropit-induced itching at 0.1 to 10 umol administered into scruff of neck; assay type: functional, organism-based
# [4] = Binding affinity to cyclooxygenase
# [5] = Bioavailability in rat at 1 mg/kg, po; assay type: ADME, organism-based; conditions: in vivo
# [6] = Binding affinity to T-type voltage gated calcium channel
# [7] = Binding affinity to NMDA receptor
# [8] = target: Cannabinoid receptor 1 (Homo sapiens, UniProt P21554); experiment: Binding affinity to cannabinoid receptor
# [9] = target: P2X purinoceptor 7 (Homo sapiens, UniProt Q99572); experiment: Binding affinity to human P2X7 channel
# [10] = Tmax in mouse at 2.5 mg/kg, po; assay type: ADME, organism-based; parameters: dose 2.5 mg/kg, route oral; conditions: in vivo
# [11] = target: T2, 5-hydroxytryptamine receptor 1A (Homo sapiens, UniProt P08908); experiment: Agonist activity at 5HT1A receptor expressed in CHO cells by GTPgammaS binding assay; assay type: functional, cell-based
# [12] = Plasma concentration in mouse at 25 umol/kg, ip after 30 mins; assay type: ADME, organism-based
# [13] = target: P2X purinoceptor 7 (Mus musculus, UniProt Q9Z1M0); experiment: Binding affinity to mouse P2X7 channel
# [14] = test system: Rattus norvegicus; experiment: Plasma concentration in rat at 30 umol/kg, ip; assay type: ADME, organism-based; conditions: in vivo
# [15] = target: T3, Histamine H4 receptor (Rattus norvegicus, UniProt Q91ZY1); experiment: Agonist activity at rat histamine H4 receptor expressed in HEK293 cells coexpressing Gqi5 protein assessed as calcium flux by FLIPR assay; assay type: functional, cell-based
# [16] = Binding affinity to neuronal nicotine receptor
# [17] = target: 5-hydroxytryptamine receptor 1B (Homo sapiens) (UniProt P28222); experiment: Inhibition of 5HT1B receptor at 10 umol
# [18] = Cmax in rat at 1 mg/kg, po; assay type: ADME, organism-based; parameters: dose 1 mg/kg, route oral; conditions: in vivo
# [19] = target: Histamine H4 receptor (Mus musculus) (UniProt Q91ZY2); experiment: Agonist activity at mouse histamine H4 receptor expressed in HEK293 cells coexpressing Gqi5 protein assessed as calcium flux by FLIPR assay relative to histamine; assay type: functional, cell-based
# [20] = target: T1, 5-hydroxytryptamine receptor 7; experiment: Binding affinity to 5HT7 receptor
# [21] = target: 5-hydroxytryptamine receptor 1D (Homo sapiens, UniProt P28221); experiment: Binding affinity to 5HT1D receptor
# [22] = target: 5-hydroxytryptamine receptor 1A (Homo sapiens) (UniProt P08908); experiment: Agonist activity at 5HT1A receptor expressed in CHO cells by GTPgammaS binding assay relative to serotonin; assay type: functional, cell-based
# [23] = Binding affinity to opioid receptor
# [24] = Bioavailability in mouse at 2.5 mg/kg, po; assay type: ADME, organism-based; conditions: in vivo
# [25] = test system: Rattus norvegicus; experiment: Antiinflammatory activity against carrageenan-induced thermal hyperalgesia in rat assessed as increase in paw withdrawal at 100 umol/kg, ip relative to control; assay type: functional
# [26] = target: Alpha-2C adrenergic receptor (Homo sapiens, UniProt P18825); experiment: Binding affinity to adrenergic Alpha-2C receptor
# [27] = Terminal volume of distribution in mouse at 2.5 mg/kg, iv; assay type: ADME, organism-based; parameters: dose 2.5 mg/kg, route intravenous; conditions: in vivo, read-out: Vbeta
# [28] = Protein binding in ip dosed rat plasma; assay type: ADME, organism-based; conditions: read-out: PPB (converted)
# [29] = test system: Rattus norvegicus; experiment: Antiinflammatory activity against carrageenan-induced thermal hyperalgesia in rat assessed as increase in paw withdrawal at 30 umol/kg, ip relative to control; assay type: functional
# [30] = target: T2, 5-hydroxytryptamine receptor 1A; experiment: Binding affinity to 5HT1A receptor
# [31] = Plasma clearance in rat at 1 mg/kg, iv; assay type: ADME, organism-based; parameters: dose 1 mg/kg, route intravenous
# [32] = target: Histamine H4 receptor (Mus musculus, UniProt Q91ZY2); experiment: Agonist activity at mouse histamine H4 receptor expressed in HEK293 cells coexpressing Gqi5 protein assessed as calcium flux by FLIPR assay; assay type: functional, cell-based
# [33] = test system: Rattus norvegicus; experiment: Plasma concentration in carrageenan-induced rat at 10 umol/kg, ip; assay type: ADME, organism-based; conditions: in vivo
# [34] = test system: Rattus norvegicus; experiment: Antiinflammatory activity against carrageenan-induced thermal hyperalgesia in ip dosed rat assessed as increase in paw withdrawal; assay type: functional
# [35] = Plasma concentration in rat at 30 umol/kg, ip after 30 mins; assay type: ADME, organism-based
# [36] = Cmax in mouse at 2.5 mg/kg, iv; assay type: ADME, organism-based; parameters: dose 2.5 mg/kg, route intravenous; conditions: in vivo
# [37] = Drug level in rat brain at 30 umol/kg, ip after 30 mins; assay type: ADME, organism-based; conditions: read-out: Drug uptake
# [38] = test system: Mus musculus; experiment: Antiinflammatory activity in zymosan-induced peritonitis in sc dosed BALB/c mouse model assessed as decrease in myeloperoxidase activity in peritoneal lavage; assay type: functional
# [39] = test system: Mus musculus; experiment: Antiinflammatory activity in ip dosed CD1/ICR mouse assessed as reduction of clobenpropit-induced itching; assay type: functional
# [40] = organism: Rattus norvegicus; experiment: Antiinflammatory activity against carrageenan-induced hyperalgesia in rat assessed as increase in paw withdrawal by measuring plasma free fraction potency; assay type: functional, organism-based
# [41] = target: Histamine H3 receptor (Rattus norvegicus, UniProt Q9QYN8); experiment: Binding affinity to rat histamine H3 receptor
# [42] = Cmax in rat at 1 mg/kg, iv; assay type: ADME, organism-based; parameters: dose 1 mg/kg, route intravenous; conditions: in vivo
# [43] = Terminal volume of distribution in rat at 1 mg/kg, iv; assay type: ADME, organism-based; parameters: dose 1 mg/kg, route intravenous; conditions: in vivo, read-out: Vbeta
# [44] = target: 5-hydroxytryptamine receptor 2C (Homo sapiens, UniProt P28335); experiment: Binding affinity to 5HT2C receptor
# [45] = target: T4, 5-hydroxytryptamine receptor 2A (Homo sapiens, UniProt P28223); experiment: Binding affinity to 5HT2A receptor
# [46] = Inhibition of histamine-induced shape change in BALB/c mouse BMMC by gated autofluorescence forward scatter; assay type: functional
# [47] = target: T3, Histamine H4 receptor; experiment: Agonist activity at rat histamine H4 receptor expressed in HEK293 cells coexpressing Gqi5 protein by GTPgammaS assay; assay type: functional, cell-based
# [48] = target: Alpha-2A adrenergic receptor (Homo sapiens, UniProt P08913); experiment: Binding affinity to adrenergic alpha2A receptor
# [49] = Plasma clearance in mouse at 2.5 mg/kg, iv; assay type: ADME, organism-based; parameters: dose 2.5 mg/kg, route intravenous
# [50] = target: Histamine H3 receptor (Homo sapiens, UniProt Q9Y5N1); experiment: Binding affinity to human histamine H3 receptor
# [51] = test system: Rattus norvegicus; experiment: Plasma concentration in rat at 100 umol/kg, ip; assay type: ADME, organism-based; conditions: in vivo
# [52] = Inhibition of adrenergic alpha2 receptor at 10 umol
# [53] = Half life in mouse at 2.5 mg/kg, po; assay type: ADME, organism-based; parameters: dose 2.5 mg/kg, route oral; conditions: in vivo
# [54] = Cmax in mouse at 2.5 mg/kg, po; assay type: ADME, organism-based; parameters: dose 2.5 mg/kg, route oral; conditions: in vivo
# [55] = Tmax in rat at 1 mg/kg, po; assay type: ADME, organism-based; parameters: dose 1 mg/kg, route oral; conditions: in vivo
# [56] = target: T3, Histamine H4 receptor; experiment: Displacement of [3H]histamine from rat histamine H4 receptor expressed in HEK293 cells; assay type: cell-based
# [57] = target: 5-hydroxytryptamine receptor 1A (Homo sapiens) (UniProt P08908); experiment: Inhibition of 5HT1A receptor at 10 umol
# [58] = target: T4, 5-hydroxytryptamine receptor 2A; experiment: Inhibition of 5HT2A receptor at 10 umol
# T3 sequence (Q91ZY1 whole entry): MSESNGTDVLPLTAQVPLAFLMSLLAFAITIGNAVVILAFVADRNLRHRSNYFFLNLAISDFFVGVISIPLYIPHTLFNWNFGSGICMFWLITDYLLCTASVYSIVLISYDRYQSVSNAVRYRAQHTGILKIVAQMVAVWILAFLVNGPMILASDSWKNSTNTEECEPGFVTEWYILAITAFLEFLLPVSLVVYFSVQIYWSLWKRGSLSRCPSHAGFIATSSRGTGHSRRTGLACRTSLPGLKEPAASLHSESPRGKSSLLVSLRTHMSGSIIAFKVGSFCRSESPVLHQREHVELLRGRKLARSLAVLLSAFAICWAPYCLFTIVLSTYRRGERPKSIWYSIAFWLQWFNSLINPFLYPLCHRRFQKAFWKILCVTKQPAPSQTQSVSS
# T1 sequence (P34969 whole entry): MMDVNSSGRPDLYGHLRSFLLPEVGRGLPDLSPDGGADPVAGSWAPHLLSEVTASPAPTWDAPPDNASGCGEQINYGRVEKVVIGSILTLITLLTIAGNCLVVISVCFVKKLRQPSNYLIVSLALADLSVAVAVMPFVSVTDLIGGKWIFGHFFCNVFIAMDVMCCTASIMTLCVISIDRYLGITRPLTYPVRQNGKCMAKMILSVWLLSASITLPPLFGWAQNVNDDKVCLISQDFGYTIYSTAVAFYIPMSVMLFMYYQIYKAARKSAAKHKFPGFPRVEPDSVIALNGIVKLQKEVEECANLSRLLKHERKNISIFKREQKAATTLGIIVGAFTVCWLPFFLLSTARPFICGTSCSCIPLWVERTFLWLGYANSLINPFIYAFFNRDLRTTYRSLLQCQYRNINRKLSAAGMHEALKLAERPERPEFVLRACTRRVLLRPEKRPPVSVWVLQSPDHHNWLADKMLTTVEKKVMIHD
# T4 sequence (P28223 whole entry): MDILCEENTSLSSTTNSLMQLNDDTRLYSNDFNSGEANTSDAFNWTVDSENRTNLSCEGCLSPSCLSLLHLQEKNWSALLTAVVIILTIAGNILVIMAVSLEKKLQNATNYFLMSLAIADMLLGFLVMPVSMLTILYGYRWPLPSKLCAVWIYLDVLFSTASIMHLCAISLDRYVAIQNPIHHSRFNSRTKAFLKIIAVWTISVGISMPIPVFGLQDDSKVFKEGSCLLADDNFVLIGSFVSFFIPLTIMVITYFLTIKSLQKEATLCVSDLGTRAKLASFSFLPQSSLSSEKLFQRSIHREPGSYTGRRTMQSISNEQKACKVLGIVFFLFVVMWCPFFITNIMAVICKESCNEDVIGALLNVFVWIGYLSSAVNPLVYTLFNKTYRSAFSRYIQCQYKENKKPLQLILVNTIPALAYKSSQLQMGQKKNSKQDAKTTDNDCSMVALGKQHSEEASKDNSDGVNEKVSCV
# Sequence of 5-hydroxytryptamine receptor 1A (Homo sapiens) (P08908 whole entry): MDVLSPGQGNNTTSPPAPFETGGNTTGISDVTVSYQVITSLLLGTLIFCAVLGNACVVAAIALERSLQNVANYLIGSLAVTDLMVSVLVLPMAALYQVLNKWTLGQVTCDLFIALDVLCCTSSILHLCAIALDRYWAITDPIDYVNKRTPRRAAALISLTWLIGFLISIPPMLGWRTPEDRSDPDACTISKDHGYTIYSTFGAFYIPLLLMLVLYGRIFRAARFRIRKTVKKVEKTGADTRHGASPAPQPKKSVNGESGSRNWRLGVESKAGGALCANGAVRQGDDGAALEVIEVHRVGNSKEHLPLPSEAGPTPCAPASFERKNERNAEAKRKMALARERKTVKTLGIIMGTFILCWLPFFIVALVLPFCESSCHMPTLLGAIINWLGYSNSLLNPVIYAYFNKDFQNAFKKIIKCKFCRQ
# T2 sequence (P08908 whole entry): as above
# Sequence of Histamine H3 receptor (Rattus norvegicus, UniProt Q9QYN8) (Q9QYN8 whole entry): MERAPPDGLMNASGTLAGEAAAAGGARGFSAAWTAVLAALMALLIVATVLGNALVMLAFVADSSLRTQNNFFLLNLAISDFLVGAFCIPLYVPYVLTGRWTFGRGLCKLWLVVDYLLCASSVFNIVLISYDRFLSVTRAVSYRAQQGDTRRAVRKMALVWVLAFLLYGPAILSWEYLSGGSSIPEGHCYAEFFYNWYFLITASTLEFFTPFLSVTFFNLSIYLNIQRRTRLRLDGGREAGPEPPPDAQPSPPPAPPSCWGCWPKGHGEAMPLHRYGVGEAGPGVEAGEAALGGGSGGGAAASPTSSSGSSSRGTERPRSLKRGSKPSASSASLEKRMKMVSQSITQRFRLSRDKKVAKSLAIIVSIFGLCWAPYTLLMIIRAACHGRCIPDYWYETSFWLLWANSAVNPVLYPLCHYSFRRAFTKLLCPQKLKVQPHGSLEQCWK
# Sequence of Histamine H3 receptor (Homo sapiens, UniProt Q9Y5N1) (Q9Y5N1 whole entry): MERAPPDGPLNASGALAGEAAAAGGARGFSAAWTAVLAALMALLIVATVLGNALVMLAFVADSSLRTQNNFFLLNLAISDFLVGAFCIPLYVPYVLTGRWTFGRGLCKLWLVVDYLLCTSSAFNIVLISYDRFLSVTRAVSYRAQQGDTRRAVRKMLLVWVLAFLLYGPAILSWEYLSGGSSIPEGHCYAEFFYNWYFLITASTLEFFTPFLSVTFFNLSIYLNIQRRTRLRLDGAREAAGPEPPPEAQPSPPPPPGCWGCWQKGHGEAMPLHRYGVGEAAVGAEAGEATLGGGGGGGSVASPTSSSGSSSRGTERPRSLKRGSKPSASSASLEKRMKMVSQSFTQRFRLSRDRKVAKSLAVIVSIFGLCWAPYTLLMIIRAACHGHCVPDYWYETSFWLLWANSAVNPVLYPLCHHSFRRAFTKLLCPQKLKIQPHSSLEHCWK
# Sequence of P2X purinoceptor 7 (Mus musculus, UniProt Q9Z1M0) (Q9Z1M0 whole entry): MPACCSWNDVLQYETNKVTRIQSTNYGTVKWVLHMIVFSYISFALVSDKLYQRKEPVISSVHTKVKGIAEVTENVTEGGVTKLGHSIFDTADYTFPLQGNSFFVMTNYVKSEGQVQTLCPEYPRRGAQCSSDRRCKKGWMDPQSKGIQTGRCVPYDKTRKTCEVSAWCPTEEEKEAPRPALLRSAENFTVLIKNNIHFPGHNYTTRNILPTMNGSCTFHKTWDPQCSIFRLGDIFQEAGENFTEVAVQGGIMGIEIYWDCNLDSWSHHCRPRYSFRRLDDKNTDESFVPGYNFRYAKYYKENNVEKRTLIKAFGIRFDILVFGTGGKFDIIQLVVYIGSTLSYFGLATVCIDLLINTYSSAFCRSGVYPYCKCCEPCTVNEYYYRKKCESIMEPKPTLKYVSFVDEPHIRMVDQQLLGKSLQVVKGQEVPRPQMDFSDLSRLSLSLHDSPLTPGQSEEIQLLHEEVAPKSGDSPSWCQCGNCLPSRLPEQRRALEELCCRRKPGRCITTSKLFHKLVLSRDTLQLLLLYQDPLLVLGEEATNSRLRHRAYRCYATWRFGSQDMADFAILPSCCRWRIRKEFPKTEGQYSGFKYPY
# Sequence of Histamine H4 receptor (Mus musculus, UniProt Q91ZY2) (Q91ZY2 whole entry): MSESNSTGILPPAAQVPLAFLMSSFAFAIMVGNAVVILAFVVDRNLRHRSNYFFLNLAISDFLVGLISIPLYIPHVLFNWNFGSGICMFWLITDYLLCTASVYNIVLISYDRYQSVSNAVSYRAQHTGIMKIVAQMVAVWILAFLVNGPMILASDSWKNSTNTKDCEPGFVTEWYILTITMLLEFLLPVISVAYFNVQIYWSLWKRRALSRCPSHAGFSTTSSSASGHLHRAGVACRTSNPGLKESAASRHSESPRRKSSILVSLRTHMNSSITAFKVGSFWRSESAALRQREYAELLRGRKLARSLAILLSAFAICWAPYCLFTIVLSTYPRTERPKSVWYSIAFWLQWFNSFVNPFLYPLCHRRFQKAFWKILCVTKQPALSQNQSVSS
# Sequence of Histamine H4 receptor (Mus musculus) (Q91ZY2 whole entry): as above
# Sequence of 5-hydroxytryptamine receptor 1D (P28221 whole entry): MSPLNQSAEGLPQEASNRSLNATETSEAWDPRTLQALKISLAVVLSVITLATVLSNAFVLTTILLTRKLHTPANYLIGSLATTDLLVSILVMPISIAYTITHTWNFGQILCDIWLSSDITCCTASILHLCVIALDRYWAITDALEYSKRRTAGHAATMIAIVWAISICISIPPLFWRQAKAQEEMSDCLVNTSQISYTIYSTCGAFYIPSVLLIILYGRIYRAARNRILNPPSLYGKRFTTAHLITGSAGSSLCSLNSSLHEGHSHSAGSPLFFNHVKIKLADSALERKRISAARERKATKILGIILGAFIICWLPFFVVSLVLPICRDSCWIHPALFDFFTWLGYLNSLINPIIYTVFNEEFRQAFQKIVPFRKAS
# Sequence of 5-hydroxytryptamine receptor 1B (Homo sapiens) (P28222 whole entry): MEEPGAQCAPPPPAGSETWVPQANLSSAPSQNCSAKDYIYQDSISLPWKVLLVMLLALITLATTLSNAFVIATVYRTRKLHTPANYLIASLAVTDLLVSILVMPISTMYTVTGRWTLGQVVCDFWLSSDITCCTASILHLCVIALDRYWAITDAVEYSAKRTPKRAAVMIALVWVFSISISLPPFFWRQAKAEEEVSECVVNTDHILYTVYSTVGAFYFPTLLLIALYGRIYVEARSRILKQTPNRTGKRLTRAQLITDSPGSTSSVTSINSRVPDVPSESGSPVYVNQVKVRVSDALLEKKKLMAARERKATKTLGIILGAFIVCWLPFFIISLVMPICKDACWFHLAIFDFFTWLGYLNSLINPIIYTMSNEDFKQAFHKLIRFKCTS
# Sequence of Alpha-2A adrenergic receptor (P08913 whole entry): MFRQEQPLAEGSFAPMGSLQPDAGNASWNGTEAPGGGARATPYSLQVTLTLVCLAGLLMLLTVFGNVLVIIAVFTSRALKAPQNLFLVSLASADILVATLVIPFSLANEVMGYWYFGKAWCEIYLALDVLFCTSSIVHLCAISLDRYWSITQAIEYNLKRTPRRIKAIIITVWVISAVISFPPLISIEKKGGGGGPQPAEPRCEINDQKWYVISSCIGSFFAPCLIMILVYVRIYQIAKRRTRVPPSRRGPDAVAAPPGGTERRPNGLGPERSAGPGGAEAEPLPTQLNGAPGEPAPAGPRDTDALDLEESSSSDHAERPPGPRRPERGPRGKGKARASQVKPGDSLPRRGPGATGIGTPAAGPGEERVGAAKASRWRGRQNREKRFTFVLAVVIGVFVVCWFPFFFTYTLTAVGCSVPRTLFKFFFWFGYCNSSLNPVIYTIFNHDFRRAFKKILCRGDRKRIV
smiles,measurement,setting,value
CN1CCN(c2cc(-c3ccc(C#N)cc3)nc(N)n2)CC1,inhibition,[1],53%
same,Activity,[2],Non-toxic
same,Activity,[3],inactive
same,IC50,[4],> 100 µM
same,bioavailability,[5],31%
same,IC50,[6],> 10 µM
same,IC50,[7],> 100 µM
same,Ki,[8],> 10 µM
same,IC50,[9],> 100 µM
same,Tmax,[10],15 min
same,EC50,[11],1.62 µM
same,concentration at 0.5 h,[12],1150 ng/mL
same,IC50,[13],> 100 µM
same,Cp,[14],836 ng/mL
same,EC50,[15],0.0589 µM
same,Ki,[16],100 µM
same,inhibition,[17],86%
same,Cmax,[18],32 ng/mL
same,Efficacy,[19],54%
same,Ki,[20],5.9 µM
same,Ki,[21],0.12 µM
same,Efficacy,[22],92%
same,IC50,[23],> 10 µM
same,bioavailability,[24],41%
same,Activity,[25],100%
same,Ki,[26],0.29 µM
same,Vd,[27],3.9 L/kg
same,fraction unbound,[28],0.33
same,Activity,[29],36%
same,Ki,[30],0.042 µM
same,clearance,[31],172 mL/min/kg
same,EC50,[32],0.123 µM
same,Cp,[33],212 ng/mL
same,ED50,[34],32 µmol/kg
same,concentration at 0.5 h,[35],600 ng/mL
same,Cmax,[36],570 ng/mL
same,concentration at 0.5 h,[37],12100 ng/g
same,ED50,[38],64 µmol/kg
same,ED50,[39],34 µmol/kg
same,EC50,[40],0.2 µg/mL
same,Ki,[41],0.245 µM
same,Cmax,[42],160 ng/mL
same,Vd,[43],7.1 L/kg
same,Ki,[44],3 µM
same,Ki,[45],4.1 µM
same,pKb,[46],6.56
same,EC50,[47],4.68 µM
same,Ki,[48],0.074 µM
same,clearance,[49],255 mL/min/kg
same,Ki,[50],1.29 µM
same,Cp,[51],2468 ng/mL
same,inhibition,[52],92%
same,half-life,[53],36 min
same,Cmax,[54],92 ng/mL
same,Tmax,[55],24 min
same,Ki,[56],0.275 µM
same,inhibition,[57],99%
same,inhibition,[58],71%
